Type in all cases: in vivo
For assay [1], the system named is Setaria faberi (SETFA). The experiment in a line: Biological Example 1 glasshouse screen, pre-emergence herbicidal activity. As to conditions: application rate 250 g/ha, evaluated after 13 days. Here is the method: (§1) Seeds of a variety of test species were sown in standard soil in pots. After cultivation for one day (pre-emergence) or after 8 days cultivation (post-emergence) under controlled conditions in a glasshouse (at 24/16°C., day/night; 14 hours light; 65% humidity), the plants were sprayed with an aqueous spray solution derived from the formulation of the “technical”(i.e. unformulated) active ingredient in acetone/water (50:50) solution containing 0.5% Tween 20 (polyoxyethylene sorbitan monolaurate, CAS Registry Number 9005-64-5). The test plants were then grown in a glasshouse under controlled conditions in a glasshouse (at 24/16°C., day/night; 14 hours light; 65% humidity) and watered twice daily. After 13 days for pre- or post-emergence, the test was evaluated visually, and an assessed percentage phytotoxicity score given for each herbicidal application on each plant/weed species (with 100%=total damage to plant; 0%=no damage to plant).
(§2) Test plants: Alopecurus myosuroides (ALOMY), Setaria faberi (SETFA), Echinochloa crus-galli (ECHCG), Solanum nigrum (SOLNI), Amaranthus retroflexus (AMARE) and Ipomoea hederacea (IPOHE). ALOMY, SETFA and ECHCG are grassy monocotyledonous weeds. SOLNI, AMARE and IPOHE are dicotyledonous (broadleaved) weeds.

Assay [2] relates to Ipomoea hederacea (IPOHE). Described as above. As to conditions: application rate 250 g/ha, evaluated after 13 days. As for the experimental part:
as §1, §2

Assay [3] deals with Amaranthus retroflexus (AMARE). Described as above. As to conditions: application rate 250 g/ha, evaluated after 13 days. As for the experimental part: as §1, §2
In assay [4] the test system is Solanum nigrum (SOLNI). The assay is described as above. As to conditions: application rate 250 g/ha, evaluated after 13 days. As for the experimental part:
as §1, §2

Assay [5] concerns Echinochloa crus-galli (ECHCG). The assay is described as above. As to conditions: 312 h, application rate 250 g/ha, evaluated after 13 days, read-out: ECHCG percentage phytotoxicity. The procedure, abridged: (§3)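 Potted test species received a foliar or soil spray of active ingredient in acetone/water (50:50), 0.5% Tween 20, at 1 or 8 days after sowing for pre- and post-emergence respectively. Percentage phytotoxicity was assessed by eye after 13 days.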

Assay [6] concerns Alopecurus myosuroides (ALOMY). The assay is described as above. As to conditions: 312 h, application rate 250 g/ha, evaluated after 13 days, read-out: ALOMY percentage phytotoxicity. The procedure, abridged: as §3
The test system of assay [7] is Echinochloa crus-galli (ECHCG). Description: Biological Example 1 glasshouse screen, post-emergence herbicidal activity. As to conditions: 312 h, application rate 250 g/ha, evaluated after 13 days, read-out: ECHCG percentage phytotoxicity. The procedure, abridged: as §3
Assay [8] deals with Alopecurus myosuroides (ALOMY). The assay is described as above. As to conditions: 312 h, application rate 250 g/ha, evaluated after 13 days, read-out: ALOMY percentage phytotoxicity. The procedure, abridged: as §3
Assay [9] concerns Setaria faberi (SETFA). Described as above. As to conditions: application rate 250 g/ha, evaluated after 13 days. As for the experimental part: as §1, §2
Assay [10] relates to Ipomoea hederacea (IPOHE). Described as above. As to conditions: application rate 250 g/ha, evaluated after 13 days. As for the experimental part: as §1, §2
Assay [11] concerns Amaranthus retroflexus (AMARE). Described as above. As to conditions: application rate 250 g/ha, evaluated after 13 days. As for the experimental part:
as §1, §2

For assay [12], the system named is Solanum nigrum (SOLNI). Described as above. As to conditions: application rate 250 g/ha, evaluated after 13 days. As for the experimental part: as §1, §2
In assay [13] the test system is Setaria faberi (SETFA). The experiment in a line: Biological Example 2 post-emergence herbicidal activity (comparative data). As for the experimental part: as §1
(§4) Comparative herbicidal data are given for certain exemplified compounds with 4-(prop-1-ynyl)-2,6-dimethylphenyl or 4-(chloroethynyl)-2,6-dimethylphenyl headgroups, compared to the corresponding comparative compounds with 4-ethynyl-2,6-dimethylphenyl headgroups, as follows.
(§5) Except where specified otherwise, the glasshouse screen for herbicidal activity is substantially the same as that presented in Biological Example 1 hereinabove. The weed abbreviations are as defined in Biological Example 1.

For assay [14], the system named is Echinochloa crus-galli (ECHCG). Described as above. As to conditions: 312 h, read-out: ECHCG percentage phytotoxicity. As for the experimental part:
as §1, §4, §5

The subject of assay [15] is Alopecurus myosuroides (ALOMY). Described as above. As to conditions: 312 h, read-out: ALOMY percentage phytotoxicity. Here is the method:
as §1, §4, §5

Take `Cc1cc(C#CCl)cc(C)c1C1C(=O)CCC1=O` [Compound A-16]: the SEFTA percentage phytotoxicity worked out at 90% in the assay with Setaria faberi (SETFA) [1] and 70% in the assay with Setaria faberi (SETFA) [9]. In addition, the IPOHE percentage phytotoxicity in assay [2] was 0%; in assay [10], 10%. In addition, the AMARE percentage phytotoxicity in assay [3] worked out at 40%; in assay [11] it was 10%. Moreover, the figures for the SOLNI percentage phytotoxicity in the assay with Solanum nigrum (SOLNI) [4] and with Solanum nigrum (SOLNI) [12] were 10% and 20%, respectively. Besides, the pest or weed control at 250 g/ha is 100% in assay [5], 50% in [6], 100% in assay [7] and 50% in [8]. For the same compound, the SETFA percentage phytotoxicity in the assay on Setaria faberi (SETFA) [13] (15.625 g/ha application rate) is 0%; with Setaria faberi (SETFA) [13] (62.5 g/ha application rate), 80%. The pest or weed control at 15.625 g/ha in assay [14] (15.625 g/ha application rate) is 70%; in assay [15] (15.625 g/ha application rate), 10%. Further, the pest or weed control at 62.5 g/ha amounted to 90% in [14] (62.5 g/ha application rate) and 10% in assay [15] (62.5 g/ha application rate).

Values taken from patent US9107415B2, “2-(substituted-phenyl)-cyclopentane-1,3-dione compounds, and derivatives thereof” (Syngenta Limited, priority 2011, dated 2015).
